In general, Kd refers to the free concentration of one partner at which half of the binding sites on the other are occupied at equilibrium, for simple one-to-one binding. As a reminder, the kinetic solubility is solubility judged after dilution from a stock solution rather than from solid. As usually defined, the thermodynamic solubility is the concentration in solution at equilibrium with solid.

≈ marks a conversion by molar mass, not a printed value.

For the first data set, the target named is Baculoviral IAP repeat-containing protein 5 (Homo sapiens, UniProt O15392). As to the kind of experiment: Binding affinity to human survivin expressed in Escherichia coli BL21 cells after 30 mins.
Baculoviral IAP repeat-containing protein 5, sequence (O15392 whole entry): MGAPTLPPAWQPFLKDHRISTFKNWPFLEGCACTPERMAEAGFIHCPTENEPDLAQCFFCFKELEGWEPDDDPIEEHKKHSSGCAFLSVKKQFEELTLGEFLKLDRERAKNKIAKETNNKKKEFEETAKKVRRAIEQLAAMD
Conditions: not given
As to `N#Cc1c(-c2ccccc2)cc(-c2cc(Br)ccc2O)[nH]c1=O`, the Kd turned out to be 5 µM. The compound `N#Cc1c(-c2ccccc2)cc(-c2ccccc2O)[nH]c1=O` had a Kd of 75 µM. In turn, `CC1(C)NC(=O)N(C/C(COc2ccc(-c3ccc(OC(F)(F)F)cc3)cc2)=N/O)C1=O` showed a Kd of under 10 µM.

Consider `Cc1ccnc(NC(=O)C2CCNCC2)c1`, for which the dissociation constant (Kd) stood at 130 µM. `CCc1oc2ccccc2c1C(=O)c1cc(I)c(O)c(I)c1` [BENZIODARONE] had a Kd of 8 µM. Still for that read-out and setting: the result for `N#Cc1c(-c2cc(-c3ccccc3)ccc2Cl)cc(-c2cc(Br)ccc2O)[nH]c1=O` reads over 4.3 µM; that for `Clc1cccc(Nc2ccc3ccccc3c2)c1`, under 10 µM.

Tested on in another data set: not listed separately
As to the kind of experiment: Solubility by nephelometry. It counts as physicochemical.
Conditions: not given
`COCC(=O)N1CCC(C(=O)N(C)Cc2cc(Cl)cc(-c3cc(-c4cc(C(F)(F)F)ccc4Cl)c(C#N)c(=O)[nH]3)c2O)CC1` yielded a kinetic solubility of over 32 µM. `CC(=O)N1CCC(C(=O)N(C)Cc2cc(Cl)cc(-c3cc(-c4cc(C(F)(F)F)ccc4Cl)c(C#N)c(=O)[nH]3)c2O)CC1` gave a kinetic solubility of over 32 µM.

`CCCC(=O)N1CCC(C(=O)N(C)Cc2cc(Cl)cc(-c3cc(-c4cc(C(F)(F)F)ccc4Cl)c(C#N)c(=O)[nH]3)c2O)CC1` had a kinetic solubility of over 32 µM. `CN(Cc1cc(Cl)cc(-c2cc(-c3cc(C(F)(F)F)ccc3Cl)c(C#N)c(=O)[nH]2)c1O)C(=O)C1CCN(C(=O)C2CCCCC2)CC1` came in with a solubility (kinetic) of over 32 µM.

Tested on in a further data set: not listed separately
As to the kind of experiment: Solubility at pH 7.4 by shake flask method. Type of data set: physicochemical. To be noted: buffer.
For `COCC(=O)N1CCC(C(=O)N(C)Cc2cc(Cl)cc(-c3cc(-c4cc(C(F)(F)F)ccc4Cl)c(C#N)c(=O)[nH]3)c2O)CC1`, the solubility (thermodynamic) amounted to 138 µM (≈ 89.9 µg/mL). `CC(=O)N1CCC(C(=O)N(C)Cc2cc(Cl)cc(-c3cc(-c4cc(C(F)(F)F)ccc4Cl)c(C#N)c(=O)[nH]3)c2O)CC1` came in with a thermodynamic solubility of 300 µM (≈ 186 µg/mL).
